Like-named read-outs stand apart in the source and are kept apart here.
Tests used:
[1] = tested on: human platelet-rich plasma; assay: Platelet aggregation assay (Aggregation-Human PRP/ADP); assay type: cell-based
Experimental: Platelet-rich plasma was prepared from healthy human volunteers for use in determining inhibition of platelet aggregation by the compounds.
Platelet-rich plasma was prepared at room temperature by centrifugation of the citrated whole blood at 100 × g for twelve minutes. The platelet rich plasma contained approximately 200-400,000 platelets/μl.
Platelet aggregation was assayed in a 4-channel platelet aggregation profiler (PAP-4, Biodata, Hatboro, Pa.) according to the manufacturers directions. Inhibition of platelet aggregation was studied by adding varying amounts of adenosine diphosphate (ADP) to stirred human platelet-rich plasma. Specifically, the human platelet-rich plasma was incubated with the compound being tested for 1 minute at 37° C. prior to the addition of a variety of aggregating agents most often ADP 5 μM to 20 μM, but also 1 μg/ml collagen, 1 μM U46619 and 0.3 μM platelet activating factor.

[2] = tested on: human platelet-rich plasma; assay: as above; assay type: cell-based; remark: listed apart in the source
GPIIb-IIIa = target: T1, GPIIb-IIIa (Homo sapiens, UniProt P05106+P08514); assay: ELISA IIb-IIIa assay (fibrinogen binding to immobilized purified GPIIb-IIIa); conditions: inhibition of fibrinogen binding to purified GPIIb-IIIa
T1 construct: Purified platelet GPIIb-IIIa receptor was prepared as described by Fitzgerald; from tissue; host or cells: platelets
Experimental: No. 1 - The ELISA IIb-IIIa Assay
PIIb-IIIa is coated onto microtiter plates. The coated support is then contacted with fibrinogen and with the test material (e.g., compounds of Formula I) and incubated for a sufficient time to permit maximal binding of fibrinogen to the immobilized GPIIb- Ila. Fibrinogen is typically provided at a concentration of about 5-50 nM and the test material can, if desired, be added at a series of dilution. Typical incubations are 2 to 4 hours at 25° C., the time and temperature being interdependent.
After incubation, the solution containing the fibrinogen and test material is removed and the level of binding of fibrinogen measured by quantitating bound fibrinogen to GPIIb-IIIa. Any suitable means of detection may be used, but it is convenient to employ labeled fibrinogen, for example using biotinylated labels. Such methods are well known in the art.
A. Description of Assays—Plate Assays
After purification, the receptors were stored in 0.1% Triton X-100 at 0.1-1.0 mg/ml.
The receptors were coated to the wells of 96-well flat-bottom ELISA plates (Linbro EIA-Plus microtiter plate, Flow Laboratories) after diluting 1:200 with a solution of 20 mM Tris-HCl, 150 mM NaCl, 1 mM CaCl2, pH 7.4, to reduce the Triton X-100 concentration to below its critical micellar concentration and adding an aliquot of 100 ul to each well. The wells were all allowed to incubate overnight at 4° C., and then aspirated to dryness. Additional sites were blocked by the addition of bovine serum albumin (BSA) at 35 mg/ml in the above buffer for two hours at 30° C. to prevent nonspecific binding. The wells were then washed once with binding buffer ([…] Tris-HCl, 100 mM NaCl 2 mM CaCl2, 1 mg/ml BSA).
The corresponding ligands (fibrinogen, von Willebrand Factor, or vitronectin) were conjugated to biotin using commercially available reagents and standard protocols. The labeled ligands were added to the receptor-coated wells at final concentration of 10 nM (100 ul/well) and incubated for 3 hours at 25° C. in the presence or absence of the test samples. After incubation, the wells are aspirated to dryness and bound ligand is quantitated.
Decreased color development is observed in wells incubated with test samples which inhibit binding of ligand to receptor.

[3] = read-out: PRP (ADP-Citrate) IC50

T1 sequence (P08514 32-887 limits assumed): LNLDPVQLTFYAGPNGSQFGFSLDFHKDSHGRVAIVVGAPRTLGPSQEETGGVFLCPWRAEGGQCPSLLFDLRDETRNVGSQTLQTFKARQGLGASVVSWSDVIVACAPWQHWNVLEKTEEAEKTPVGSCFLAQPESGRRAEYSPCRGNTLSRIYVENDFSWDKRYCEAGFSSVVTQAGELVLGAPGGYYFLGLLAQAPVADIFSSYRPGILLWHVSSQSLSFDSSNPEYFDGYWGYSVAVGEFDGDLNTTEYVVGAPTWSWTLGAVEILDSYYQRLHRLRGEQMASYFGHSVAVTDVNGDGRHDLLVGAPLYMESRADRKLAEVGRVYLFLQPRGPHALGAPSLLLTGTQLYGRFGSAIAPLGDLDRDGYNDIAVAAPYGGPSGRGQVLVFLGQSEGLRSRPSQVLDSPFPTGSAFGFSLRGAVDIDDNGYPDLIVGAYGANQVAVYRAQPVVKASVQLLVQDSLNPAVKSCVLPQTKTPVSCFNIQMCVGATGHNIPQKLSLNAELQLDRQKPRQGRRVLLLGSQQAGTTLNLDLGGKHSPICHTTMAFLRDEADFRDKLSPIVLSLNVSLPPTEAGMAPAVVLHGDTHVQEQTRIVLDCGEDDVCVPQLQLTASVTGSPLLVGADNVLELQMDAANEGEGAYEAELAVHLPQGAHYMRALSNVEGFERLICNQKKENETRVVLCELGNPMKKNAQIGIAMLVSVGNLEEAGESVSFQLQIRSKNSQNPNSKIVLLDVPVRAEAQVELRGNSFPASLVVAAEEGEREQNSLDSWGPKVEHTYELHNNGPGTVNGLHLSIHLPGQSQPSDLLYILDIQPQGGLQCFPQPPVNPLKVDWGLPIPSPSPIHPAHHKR
T1 sequence (P08514 891-1039 limits assumed): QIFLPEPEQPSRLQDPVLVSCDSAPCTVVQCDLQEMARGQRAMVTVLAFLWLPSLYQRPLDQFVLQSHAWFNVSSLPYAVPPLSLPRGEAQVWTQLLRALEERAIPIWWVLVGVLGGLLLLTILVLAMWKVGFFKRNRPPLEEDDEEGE
T1 sequence (P05106 27-788): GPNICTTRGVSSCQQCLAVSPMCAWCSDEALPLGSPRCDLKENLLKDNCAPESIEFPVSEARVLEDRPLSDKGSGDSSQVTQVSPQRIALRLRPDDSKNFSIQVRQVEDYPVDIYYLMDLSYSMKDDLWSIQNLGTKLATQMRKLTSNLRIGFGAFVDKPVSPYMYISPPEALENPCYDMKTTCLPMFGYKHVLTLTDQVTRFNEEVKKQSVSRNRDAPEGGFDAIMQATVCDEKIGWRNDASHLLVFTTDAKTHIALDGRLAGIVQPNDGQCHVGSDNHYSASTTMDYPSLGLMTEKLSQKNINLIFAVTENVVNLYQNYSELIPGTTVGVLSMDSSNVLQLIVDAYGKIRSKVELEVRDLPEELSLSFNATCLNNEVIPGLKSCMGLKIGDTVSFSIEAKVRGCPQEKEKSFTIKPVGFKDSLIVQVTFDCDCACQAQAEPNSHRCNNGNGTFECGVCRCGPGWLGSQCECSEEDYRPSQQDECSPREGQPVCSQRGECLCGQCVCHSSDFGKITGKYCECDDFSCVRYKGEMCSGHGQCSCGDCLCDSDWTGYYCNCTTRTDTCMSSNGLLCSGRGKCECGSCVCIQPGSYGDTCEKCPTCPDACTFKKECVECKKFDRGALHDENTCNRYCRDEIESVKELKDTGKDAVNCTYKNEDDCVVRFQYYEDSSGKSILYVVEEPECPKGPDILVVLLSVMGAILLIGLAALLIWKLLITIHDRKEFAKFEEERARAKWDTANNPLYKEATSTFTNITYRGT

| Structure (SMILES) | IC50 [1, 3] | IC50 ([2]; read-out: PRP (ADP-PPACK) IC50) | IC50 (GPIIb-IIIa) | IC50 ([1]; read-out: PRP (ADP) IC50) | IC50 ([2]; read-out: PRP (PPACK) IC50) | IC50 ([1]; read-out: PRP IC50) |
| --- | --- | --- | --- | --- | --- | --- |
| O=C(O)CC(=O)N1CCN(C(=O)N2CCC3(CC2)CCN(c2ccncc2)C3)CC1 [Example 31, 3-oxo-3-(4-{[-(4-pyridyl)-2,8-diazaspiro[4.5]dec-8-yl]carbonyl}piperazino) propanoic acid] | 0.66 µM | 3.6 µM | – | – | – | – |
| CCCCS(=O)(=O)N[C@@H](CNC(=O)C1CCC2(CC1)CCN(c1ccncc1)CC2)C(=O)O [Example 15] | – | – | 0.01 µM | 0.168 µM | 0.686 µM | – |
| Cc1ccc(S(=O)(=O)N[C@@H](CNC(=O)C2CCC3(CC2)CCN(c2ccncc2)CC3)C(=O)O)cc1 [Example 14, (2S)-2-{[(4-methylphenyl)sulfonyl]amino}-3-({[3-(4-pyridyl)-3-azaspiro [5.5]undec-9-yl]carbonyl}amino)propanoic acid] | 0.098 µM | 0.169 µM | 0.001 µM | – | – | – |
| Cc1noc(C)c1S(=O)(=O)N[C@@H](CNC(=O)C1CCC2(CC1)CCN(c1ccncc1)CC2)C(=O)O [Example 13, (2S)-2-{[(3,5-dimethyl-4-isoxazolyl)sulfonyl]amino}-3-({[3-(4-pyridyl)-3-azaspiro [5.5]undec-9-yl]carbonyl}amino)propanoic acid] | 0.044 µM | 0.068 µM | 0.001 µM | – | – | – |
| O=C(O)CC(=O)N1CCCN(C(=O)N2CCC3(CC2)CCN(c2ccncc2)C3)CC1 [Example 43, 3-oxo-3-(4-{[2-(4-pyridyl)-2,8-diazaspiro[4.5]dec-8-yl]carbonyl}-1,4-diazepan-1-yl) propanoic acid] | – | – | 0.025 µM | – | – | 0.697 µM |
| O=C(N[C@@H](CCC(=O)N1CCC2(CCN(c3ccncc3)CC2)C1)C(=O)O)OCc1ccccc1 [Example 20, (2S)-2-{[(benzyloxy)carbonyl]amino}-5-oxo-5-[8-(4-pyridyl)-2,8-diazaspiro [4.5]dec-2-yl]pentanoic acid] | 9.1 µM | – | 0.012 µM | – | – | – |
| Cc1noc(C)c1S(=O)(=O)N[C@@H](CCC(=O)N1CCC2(CC1)CCN(c1ccncc1)CC2)C(=O)O [Example 8, 2(S)-2-{[(3,5-dimethyl-4-isoxazolyl)sulfonyl]amino}-5-oxo-5-[9-(4-pyridyl)-3,9-diazaspiro [5.5]undec-3-yl]pentanoic acid] | – | – | 0.002 µM | – | – | 0.021 µM |
| O=C(O)CCCCCCC(=O)N1CCC2(CCN(c3ccncc3)CC2)C1 [Example 23, 8-oxo-8-(8-(4-pyridyl)-2,8-diazaspiro[4.5]dec-2-yl)octanoic acid] | 18.7 µM | – | 0.196 µM | – | – | – |
| O=C(O)Cc1csc(NC(=O)CN2CCC3(CC2)CCN(c2ccncc2)C3)n1 [Example 54, 2-[2-({2-[2-(4-pyridyl)-2,8-diazaspiro[4.5]dec-8-yl]acetyl}amino)-1,3-thiazol-4-yl]acetic acid] | 32.1 µM | – | 2.28 µM | – | – | – |
| O=C(O)CN1CCN(C(=O)N2CCC3(CCN(c4ccncc4)CC3)C2)CC1=O [Example 27, 2-(2-oxo-4-((8-(4-pyridyl)-2,8-diazaspiro[4.5]dec-2-yl)carbonyl)-4-piperazino) acetic acid] | 0.568 µM | – | 0.035 µM | – | – | – |
| CCCCOC(=O)N[C@@H](CCC(=O)N1CCC2(CC1)CCN(c1ccncc1)CC2)C(=O)O [Example 9, 2(S)-2-[(butoxycarbonyl)amino]-5-oxo-5-[9-(4-pyridyl)-3,9-diazaspiro [5.5]undec-3-yl]pentanoic acid] | – | – | 0.002 µM | – | – | 0.722 µM |
| O=C(O)COC1CCN(C(=O)N2CCC3(CCN(c4ccncc4)CC3)C2)CC1 [Example 26, 2-((1-((8-(4-pyridyl)-2,8-diazaspiro[4.5]dec-2-yl)carbonyl)-4-piperidyl)oxy)acetic acid] | 1 µM | – | 0.457 µM | – | – | – |
| O=C(O)CN1CCN(C(=O)N2CCC3(CC2)CCN(c2ccncc2)C3)CC1 [Example 41] | – | – | 0.252 µM | – | – | 8.93 µM |
| O=C(O)CS(=O)(=O)N1CCC(C(=O)N2CCC3(CC2)CCN(c2ccncc2)C3)CC1 [Example 51, ethyl 2-[(4-{[2-(4-pyridyl)-2,8-diazaspiro[4.5]dec-8-yl]carbonyl}-piperidino)sulfonyl]acetic acid] | 0.938 µM | – | 0.094 µM | – | – | – |
| O=C(O)CCCCCC(=O)N1CCC2(CCN(c3ccncc3)CC2)C1 [Example 24, 7-oxo-7-(8-(4-pyridyl)-2,8-diazaspiro[4.5]dec-2-yl)heptanoic acid] | 1.3 µM | – | 0.016 µM | – | – | – |
| CCCCOC(=O)N[C@@H](CCC(=O)N1CCC2(CCN(c3ccncc3)CC2)C1)C(=O)O [Example 21, (2S)-2-[(butoxycarbonyl)amino]-5-oxo-5-[8-(4-pyridyl)-2,8-diazaspiro [4.5]dec-2-yl]pentanoic acid] | 5.7 µM | – | 0.162 µM | – | – | – |
| Cc1noc(C)c1S(=O)(=O)N[C@@H](CNC(=O)N1CCC2(CC1)CCN(c1ccncc1)CC2)C(=O)O [Example 10, (2S)-2-{[(3,5-dimethyl-4-isoxazolyl)sulfonyl]amino}-3-( {[9-(4-pyridyl)-3,9-diazaspiro [5.5]undec-3-yl]carbonyl}amino)propanoic acid] | – | – | 0.001 µM | – | – | 0.031 µM |

— patent US20030055244A1, “Pyridyl-containing spirocyclic compounds as inhibitors of fibrinogen-dependent platelet aggregation” (priority 1999, published 2003)
